Where two headings read alike, the source gives them in different places. Ends that are not written are not given here. Peptide text beside a SMILES is read from it.
Assays:
DRB1*0401 = DRB1*0401 (Homo sapiens, UniProt P01903+P01911, A100K/A169T/F76Y/I96L/K127E/L162R/M171V/N62H/P40V/Q125Y/R42H/S133A/S149N/S66Y/V115G/V209L/W38E); assay: MHC-peptide competition binding assay on isolated DRB1*0401 molecules
Protocol: T-cell responses to the selected peptides in patients are analysed by studying T-cell proliferation of peripheral blood lymphocytes (PBL) and synovial fluid derived cells. […] In these human studies the peptides are tested as 15-mers containing the 9-mer sequence of Table 2 as core sequence. […] The MHC binding affinity of the selected peptides is analysed for the most-common MHC class II-arthritis associations. […] The peptide binding affinity is tested in a MHC-peptide competition assay on isolated MHC molecules in the presence of a labelled marker peptide.
# MHC-peptide binding was measured as described in Wauben et al., Int. Immunol. […] Peptide binding is expressed as tire IC50.

[1] = system: T cells from inguinal and popliteal lymph nodes and spleen; assay: T-cell recognition (proliferation) during adjuvant arthritis time course; format: cell-based, Lewis rats; conditions: positive: proliferation more than 1.5 times background in more than 25% of organs; days 14, 19, 21, 32, 39
T cell clone A2b = assay: Recognition by A2b T-cell clone: proliferation and/or activation marker expression; format: cell-based, Lewis rats; conditions: positive: proliferation more than 2 times background in 2 of 4 experiments and/or activation marker upregulation in 2 of 3 experiments
Protocol: As an immediate read-out for mimicry peptides T-cell activation is measured by proliferation, TcR downregulation, expression of activation markers, and cytokines responses of clone A2b. In addition A2b-like T cells from arthritic rats are isolated, and activation of such cells is measured by, proliferation, TcR downregulation, expression of activation markers, and cytokines responses. Furthermore, T-cell lines are generated after immunisation with MT/IFA or selected peptides/DDA. The cross-reactive nature of the peptide specific T-cell responses is analysed in vitro by determining the recognition of both the self peptide as well as the mycobacterial hsp65 178-186 peptide. After testing the panel of n=65 peptides for induction of proliferation of T cell clone A2b, and/or induction of expression of activation markers, n=20 peptides (SEQ ID NOs: 15, 19, 20, 21, 22, 23, 24, 26, 30, 31, 32, 33, 35, 49, 51, 61, 63, 65, 67, 69) were considered positive. Criteria for positivity were that in 2 out of 4 experiments the induced proliferation was more than 2 times background proliferation as measured by ^3H-thymidine incorporation, and/or that in 2 out of 3 experiments upregulation of an activation marker was detectable by FACS analysis.

[2] = target: T1, DRB1*0401 molecules, detergent solubilised (human), P01903; assay: competition assay on detergent solubilised DRB1*0401 (1 µM) with biotinylated HA-marker peptide (100 nM)
T1 chain 1: not shown
T1 chain 2: not shown

[3] = DRB1*0401 1 μM, biotinylated HA-marker peptide 100 nM, peptide 0-256 μM, read-out: DRB1*0401 binding (IC50)

Molecule | T-cell recognition during adjuvant arthritis [1] | Recognition by T cell clone A2b (T cell clone A2b) | other results
CC(C)C[C@H](NC(=O)[C@H](CCC(=O)O)NC(=O)[C@H](CC(=O)O)NC(=O)[C@@H](NC(=O)[C@@H]1CCCN1C(=O)[C@@H](NC(=O)CNC(=O)[C@H](CO)NC(=O)CNC(=O)CNC(=O)[C@@H](N)CC(C)C)[C@@H](C)O)C(C)C)C(=O)N[C@@H](CC(=O)O)C(=O)N[C@@H](CCCCN)C(=O)N[C@@H](CS)C(=O)N[C@@H](CS)C(=O)O [SEQ ID NO: 79, LGGSGTPVDELDKCC] (H-LGGSGTPVDELDKCC-OH) |  |  | IC50 (DRB1*0401; [3]): 128 to 256 µM
EDLVGSASGDLDLGK [SEQ ID NO: 75, EDLVGSASGDLDLGK] |  |  | IC50 (DRB1*0401; [3]): 32 to 64 µM
FFSGSSQLE (listed as Rattus sp.) [SEQ ID NO: 49] | positive | positive | 
GHSPPDDVD (listed as Homo sapiens) [SEQ ID NO: 51] | positive | positive | 
GVSASVPVE (listed as Rattus sp.) [SEQ ID NO: 30] | positive | positive | 
IDTAVLHLD (listed as Rattus sp.) [SEQ ID NO: 33] | positive | positive | 
IPTVNENLE (listed as Rattus sp.) [SEQ ID NO: 35] | positive | positive | 
ISSFCTVVD (listed as Rattus sp.) [SEQ ID NO: 61] |  | positive | 
LGSGSTRLE (listed as Homo sapiens) [SEQ ID NO: 40] | positive |  | 
LKSLSSQIE (listed as Homo sapiens) [SEQ ID NO: 19] |  | positive | 
LPSGGDDLE (listed as Rattus sp.) [SEQ ID NO: 22] | positive | positive | 
LPSGGESLE (listed as Rattus sp.) [SEQ ID NO: 21] | positive | positive | 
LRSINQGLD (listed as Rattus sp.) [SEQ ID NO: 67] |  | positive | 
LRSPVISID (listed as Homo sapiens) [SEQ ID NO: 23] | positive | positive | 
LRSPVISIE (listed as Mus musculus) [SEQ ID NO: 24] | positive | positive | 
MTSLKSVNGQIESLI [SEQ ID NO: 78, MTSLKSVNGQIESLI] |  |  | IC50 (DRB1*0401; [3]): 64 to 128 µM
NISLVGCIE (listed as Rattus sp.) [SEQ ID NO: 32] |  | positive | 
PDSAPGEIE (listed as Rattus sp.) [SEQ ID NO: 31] | positive | positive | 
QGTIDTAVLHLDTNL [SEQ ID NO: 72, QGTIDTAVLHLDTNL] |  |  | IC50 (DRB1*0401): 8 to 16 µM
QLLGVSASVPVEHRD [SEQ ID NO: 76, QLLGVSASVPVEHRD] |  |  | IC50 (DRB1*0401; [3]): 32 to 64 µM
QPLVQTAVTNIDRPK [SEQ ID NO: 77, QPLVQTAVTNIDRPK] |  |  | IC50 (DRB1*0401; [3]): 32 to 64 µM

Molecule | T-cell recognition during adjuvant arthritis [1] | Recognition by T cell clone A2b (T cell clone A2b) | other results
SFSPTCVLE (listed as Homo sapiens) [SEQ ID NO: 38] | positive |  | 
SGSFTTALD (listed as Homo sapiens) [SEQ ID NO: 65] | positive | positive | 
SGTPVDDLD (listed as Rattus sp.) [SEQ ID NO: 63] | positive | positive | 
SHSAVCHLE (listed as Homo sapiens) [SEQ ID NO: 36] | positive |  | 
SHSFPATLE (listed as Homo sapiens) [SEQ ID NO: 47] | positive |  | 
SYRLRSPVISIDPPS [SEQ ID NO: 74, SYRLRSPVISIDPPS] |  |  | IC50 (DRB1*0401; [3]): 16 to 32 µM
TRSGNCYLD (listed as Homo sapiens) [SEQ ID NO: 54] | positive |  | 
TTTVSSFSLNVEYAI [SEQ ID NO: 80, TTTVSSFSLNVEYAI] |  |  | IC50 (DRB1*0401; [3]): 128 to 256 µM
VGSASGALD (listed as Rattus sp.) [SEQ ID NO: 20] | positive | positive | 
VMSFVNMVE (listed as Homo sapiens) [SEQ ID NO: 69] |  | positive | 
FFYFFTGSSQLEFDP (modifications not checked) [MMP-3 (2): …] |  |  | IC50 [2]: 8 µM
EDLVGSASGDLDLGK (modifications not checked) [Aggrecan (1): …] |  |  | IC50 [2]: 32 to 64 µM
SYRLRSPVISIDPPS (modifications not checked) [Perlecan: …] |  |  | IC50 [2]: 16 to 32 µM
SAFWPSLPSYLDAAY (modifications not checked) [MMP-10: …] |  |  | IC50 [2]: 8 to 16 µM
SSFWPSLPSGVDAAY (modifications not checked) [MMP-3 (1): …] |  |  | IC50 [2]: 16 to 32 µM
TTTVSSFSLNVEYAI (modifications not checked) [Versican: …] |  |  | IC50 [2]: 128 to 256 µM
LGGSGTPVDELDKCC (not fully specified; cysteine pairing not given here) [Phospholipase A2: …] |  |  | IC50 [2]: 128 to 256 µM
QLLGVSASVPVEHRD (modifications not checked) [Chondroitin sulf.(1): …] |  |  | IC50 [2]: 32 to 64 µM
QGTIDTAVLHLDTNL (modifications not checked) [Chondroitin sulf.(4): …] |  |  | IC50 [2]: 8 to 16 µM
QPLVQTAVTNIDRPK (modifications not checked) [Fibronectin: …] |  |  | IC50 [2]: 32 to 64 µM
MTSLKSVNGQIESLI (modifications not checked) [(Pro)collagen α1(III): …] |  |  | IC50 [2]: 64 to 128 µM

— US6673770B1, “Peptides for the treatment, prophylaxis, diagnosis and monitoring of autoimmune diseases” (Upither B.V., priority 1998, dated 2004)
